Entries after “also recorded” stand apart in the source; their conditions may differ.
What was measured:
[1] = tested on: peripheral cholesterol level; experiment: Hepatic oestrogenicity in the ovariectomized adult rat (plasma cholesterol); format: in vivo; conditions: ovariectomized adult rats, s.c. daily for 6 days; cholesterol day 0 vs day 8
Source text: Substances with oestrogenic action influence the synthesis of various plasma proteins, of coagulation factors and fibrinolytic factors in the liver. […] In the present investigations, lowering of the peripheral cholesterol level is used as a surrogate parameter for analysis of the hepatic oestrogenicity of the claimed pharmacological compounds. Adult ovariectomized rats were, after a pause of 6-10 days, treated daily for 6 days with the substances by subcutaneous application. The plasma cholesterol levels were determined and compared before and after the respective treatment.

endometriosis lesions = experiment: Endometriosis model in the rat (autologous transplantation); format: in vivo
Source text: Using intact adult female rats, experimental endometriosis was induced in the autologous transplantation model based on Vernon M. W. and Wilson E. A., 1985 (Fertil Steril. 44(5):684-694). A uterine horn was removed from animals that were exclusively in oestrus, the myometrium was separated from the endometrium and biopsies with dimensions of 4×4 mm were obtained from the endometrial tissue. Two uterine fragments were transplanted onto the inside of the abdominal wall (peritoneum) and two uterine fragments were transplanted onto the mesenterium of the same animal (4 fragments per animal). After 21 days the animals with endometriosis were laparotomized, and the size of the transplants was determined. The animals were treated after laparotomy and then daily in the morning with the stated dosages of the selected claimed substances by subcutaneous administration. Finally, 28 days after the start of treatment (49 days after transplantation), all the animals were laparotomized again and the size of the lesion was measured and was correlated with the size before the start of treatment.

uterus [2] = experiment: Oestrogenic action - uterus growth test in the infantile rat; format: in vivo; conditions: sc, 72 h, s.c. 3 days, maximum at dose 0.1 mg/kg, relative to E2 0.3 μg/animal, read-out: maximum uterotropic action (% estradiol action) in the dose range from 0.03 to 3 mg/kg
Method: Both the uterus and the vagina show a weight increase that is dependent on oestrogenic efficacy, in infantile animals when they are treated with a substance with oestrogenic action. In the uterus, under oestrogenic action there is also proliferation and increase in height of the luminal epithelium.
Immature, intact rats (n=5-6 animals/group; body weight 40-50 g) receive the substance s.c. for 3 days (d1-d3). On day 4 (d4) the animals are killed with CO2. The uteri are removed and weighed. For histological assessment, a piece of uterus, preferably a uterine horn, is fixed in formaldehyde and embedded in paraffin. The stimulation of the organ weights (relative to mg/100 g body weight) and the height of the epithelium are shown as percentage stimulation in comparison with the reference compound 17β-estradiol (E2). (Substitution dose of E2 0.3 μg/animal).

mammary gland = experiment: Action on the mammary gland in the juvenile rat; format: in vivo; conditions: juvenile ovariectomized rats, 6 days
Method: The formation of secretory units in the mamma is dependent in particular on gestagens and oestrogens. […] To investigate the stimulating action of test compounds, animals are ovariectomized at the age of 21 days and after a treatment-free interval of 6 days treated either with a combination of the test compound and an oestrogen (for example 70 μg/kg E1) or a combination of the test compound and a gestagen (for example promegestone 0.3 mg/kg) in each case for a period of 6 days. To investigate the antagonistic potential of a test compound, the test compound is given for a period of 6 days together with an oestrogen (see above) and a gestagen (see above). Finally one of the abdominal-inguinal mammary glands is prepared and submitted to so-called whole-mount staining. The number of secretory units on an area of approx. 1.0 mm^2 serves as the end point (moreover, this can also vary according to requirements).

[3] = tested on: ovarian estradiol synthesis; experiment: Stimulation of ovarian oestrogen synthesis (HPG axis) in intact adult rats; format: in vivo, rat; conditions: hormonally intact adult rats, daily for 10 days; quotient of peripheral estradiol values after and before treatment
Source text: The clinical use both of pure anti-oestrogens and of various SERMs for the treatment of premenopausal women is limited by their property of stimulating the ovaries through activation of the hypothalamic-pituitary-gonadal axis (HPG axis), which leads to the increase in peripheral estradiol levels (Palomba, S., Orio, F., Jr., Morelli, M., Russo, T., Pellicano, M., Zupi, E., Lombardi, G., Nappi, C., Panici, P. L., and Zullo, F. (2002). Raloxifene administration in premenopausal women with uterine leiomyomas: a pilot study. J Clin Endocrinol Metab 87, 3603-3608). This stimulation of the HPG axis is associated with penetration of the blood-brain barrier and penetration of the brain. To investigate the ovary-stimulating properties of the claimed pharmacological compounds, hormonally intact adult rats were treated with the substances daily for a period of 10 days. The study end point is the quotient of peripheral estradiol values after and before treatment.

uterus [4] = experiment: Anti-uterus growth test in the adult rat; conditions: sc, 72 h; ovariectomized adult rat, s.c. 3 days with 1.5 μg/kg/day 17β-estradiol; inhibition of uterus growth; value of 44 is a mean of two measurements; read-out: anti-oestrogenic activity in vivo in % at a dose of 0.3 mg/kg (rat)
Outline: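 Rats ovariectomized 6–10 days earlier (n=5–6/group) received test substances s.c. on days 1–3 together with 17β-estradiol at 1.5 μg/kg/day; estradiol alone and excipients served as controls. On day 4, uterus and vagina weights were normalized to mg/100 g body weight. Inhibition of estradiol-induced uterine growth is given as a percentage.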

[5] = tested on: bone mass and uterus weight; experiment: Antagonistic action on bone mass and uterus weight in hormonally intact rats; format: in vivo, Sprague-Dawley rats; conditions: adult hormonally intact rats, oral 1-10 mg/kg, 2 months
Method: Application was oral, in peanut oil/ethanol. The animals were killed on the day after the last application and the tibia and uteri were removed. The uteri were weighed, fixed and prepared for optional histological investigations. Bone density was determined on long bones by pQCT (quantitative computed tomography), once before the treatment, once on the day of autopsy. The variations for this parameter were shown correspondingly between these two reference points (values below 100 correspond to a decrease in bone mass density, values above 100 to an increase). The control group was a group of animals from which the ovaries had been removed (OVX) (due to ovariectomy, as expected there is a decrease in density of the trabecular bone in the measured range over the period of the experiment). All other animals underwent a SHAM-OP (a sham operation) (without the ovaries being removed) in addition to the application treatment. The changes in relative uterus weights served as the reference for the anti-oestrogenic action.

CN(CCCCCCC1=C(c2cc(F)cc(F)c2)CCCc2cc(O)ccc21)CCCCS(=O)(=O)CCCC(F)(F)F [Example 44, 8-(3,5-Difluorophenyl)-9-[6-(methyl{4-[(4,4,4-trifluorobutyl)sulphonyl]butyl}amino)hexyl]-6,7-dihydro-5H-benzo[7]annulen-3-ol]
hepatic oestrogenicity: lowering of the peripheral cholesterol level [1]: only observed at high dosage | peripheral (blood) estradiol level of the treated animals (endometriosis lesions; animals of the FIG. 2C experiment (FIG. 2D)): does not lead to an increase in peripheral estradiol level above the physiological range; also recorded: None of the groups treated with example compound 44 in the stated dosages shows levels above or below the naturally occurring estradiol levels | reduction of lesion sizes, independent experiment (endometriosis lesions; rat, 0.3 mg/kg to 13 mg/kg, three dosages (FIG. 2C)): significant dose-dependent reduction of lesion sizes; also recorded: all three dosages lead to a significant reduction of the lesion | dosage with significant reduction in sizes of lesions (endometriosis lesions; rat, 28 days of treatment, 115 tested 0.1-1 mg/kg, 44 tested 0.3-10 mg/kg): ≥ 1 mg/kg | reduction of lesion size (endometriosis lesions; rat, s.c. daily, 4 weeks (FIG. 2A, FIG. 2B)): significant dose-dependent reduction of lesion size | Emax at 0.1 mg/kg (uterus [2]): 6% | induction of mammary gland differentiation (agonistic potential) (mammary gland; test compound alone with gestagen R5020 or alone with oestrogen E1): no induction of mammary gland differentiation significantly different from the group given excipients; also recorded: did not show any agonistic, inducing potential | formation of mammary secretory units induced by E1 and R5020 (mammary gland; test compound with oestrogen E1 and gestagen promegestone (R5020)): dose-dependent inhibition; also recorded: dose-dependent reduction of this effect | Stimulation of ovarian oestrogen synthesis: factor at a dose of 3 mg/kg rat [3]: 1.2 | inhibition in vivo at 0.3 mg/kg (uterus [4]): 37% | effect on relative uterus weight (anti-oestrogenic action) [5]: dose-dependent anti-oestrogenic action on the uterus; also recorded: dose-dependent decrease | trabecular bone mass density of the tibia [5]: not reduced; also recorded: does not show a significant decrease in bone mass density at any of the tested dosages
